Data published in US20220324865A1 (Bayer Aktiengesellschaft, priority 2018, published 2022).

Target: T1, human EP3 receptor (Homo sapiens, UniProt P43115)
T1 construct: expressed in transfected cells; host or cells: CHO K1 (Chinese Hamster Ovary), stably co-transfected with Galpha16 and mitochondrial clytin
T1 sequence (P43115 1-390): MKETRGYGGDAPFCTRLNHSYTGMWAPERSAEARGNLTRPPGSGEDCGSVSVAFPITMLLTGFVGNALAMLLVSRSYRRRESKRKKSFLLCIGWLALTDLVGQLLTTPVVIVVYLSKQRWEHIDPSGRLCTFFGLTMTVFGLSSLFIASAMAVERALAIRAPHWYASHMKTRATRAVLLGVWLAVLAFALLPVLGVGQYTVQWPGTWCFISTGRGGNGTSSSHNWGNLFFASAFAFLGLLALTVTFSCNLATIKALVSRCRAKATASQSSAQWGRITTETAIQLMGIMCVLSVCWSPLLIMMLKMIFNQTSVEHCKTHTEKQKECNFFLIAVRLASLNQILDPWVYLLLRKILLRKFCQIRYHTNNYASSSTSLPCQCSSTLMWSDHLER
Experiment: Cellular in vitro assay for determining EP3 receptor activity (human EP3 cell line, sulprostone-stimulated calcium luminescence)
Format: cell-based
Settings: CHO cells expressing human EP3 and mitochondrial Clytin; antagonist mode, sulprostone at EC50; read-out: EP3 CHO mtCLY ANTAG IC50
How it was run: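 Antagonist activity was measured as inhibition of the luminescent calcium signal elicited by EC50 sulprostone, following 10 min compound pretreatment. The cell line was recombinant CHO K1 co-expressing human EP3, Gα16 and the photoprotein Clytin, reconstituted with coelenterazine.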

Which IC50 does the source give for `Cc1cccc2ncc(-c3cn4nc(C(=O)NC5(c6ccccc6)CCOCC5)c(C(C)C)c4c(=O)[nH]3)cc12` [Example 4-77, 3-Isopropyl-6-(5-methylquinolin-3-yl)-4-oxo-N-(4-phenyltetrahydro-2H-pyran-4-yl)-4,5-dihydropyrazolo[1,5-a]pyrazine-2-carboxamide] here?
The IC50 was 0.835 nM.

With `Cc1ccc(-c2cn3nc(C(=O)NC4(c5ccc(F)cc5)CN(C)C4)cc3c(=O)[nH]2)cc1Cl` [6-123] as the compound, how does the IC50 read?
Its IC50 is 5.63 nM.

How did the IC50 turn out when `Cc1cc(-c2cn3nc(C(=O)NC(C)c4ccccc4OC(F)F)cc3c(=O)[nH]2)ccc1C(F)(F)F` (stereo not drawn) [6-33] was run?
The IC50 was 8.15 nM.

How did the IC50 turn out when `Cc1ccc(-c2cn3nc(C(=O)NCC(N)C(F)(F)F)c(C4CC4)c3c(=O)[nH]2)cc1C` (single isomer, unassigned) [6-433] was run?
Its IC50 is 0.76 nM.

With `Cc1ccc(-c2cn3nc(C(=O)NC4CCN(CC(F)(F)F)C4)c(C4CC4)c3c(=O)[nH]2)cc1F` (single isomer, unassigned) [6-391] as the compound, how does the IC50 read?
Its IC50 is 3.3 nM.

How did the IC50 turn out when `Cc1cc(-c2cn3nc(C(=O)NC4(c5ccc(F)cc5)CN(C)C4)c(C(C)C)c3c(=O)[nH]2)ccc1Cl` [6-607] was run?
Its IC50 is 2.95 nM.

`Cc1ccc(-c2cn3nc(C(=O)N[C@@H](c4ccc(F)cc4)C(C)(C)O)c(C(F)(F)C(F)(F)F)c3c(=O)[nH]2)cc1Cl` [6-488] was tested. Which IC50 did it give?
The IC50 was 0.57 nM.

`Cc1nc(-c2cn3nc(C(=O)N[C@@H](c4ccc(F)cc4)C(C)(C)O)c(C4CC4)c3c(=O)[nH]2)ccc1Cl` [6-590] was tested. Which IC50 did it give?
Its IC50 is 1.2 nM.

How did the IC50 turn out when `Cc1cc(-c2cn3nc(C(=O)NC4(c5ccc(F)cc5)CN(C5CC5)C4)c(C4CC4)c3c(=O)[nH]2)ccc1Cl` [6-345] was run?
The IC50 was 1.55 nM.

For `Cc1cccc2ncc(-c3cn4nc(C(=O)NCC5CNC(=O)O5)c(C(C)C)c4c(=O)[nH]3)cc12` (stereo not drawn) [Example 4-42, 3-Isopropyl-6-(5-methyl-3-quinolyl)-4-oxo-N-[(2-oxooxazolidin-5-yl)methyl]-5H-pyrazolo[1,5-a]pyrazine-2-carboxamide], which IC50 is on record?
Its IC50 is 4.45 nM.

With `Cc1c(C(=O)NC(C)c2cccnc2)nn2c(C)c(-c3ccc4ccccc4c3)[nH]c(=O)c12` (stereo not drawn) [Example 3-73, 3,7-Dimethyl-6-(2-naphthyl)-4-oxo-N-[1-(3-pyridyl)ethyl]-5H-pyrazolo[1,5-a]pyrazine-2-carboxamide] as the compound, how does the IC50 read?
Its IC50 is 2.7 nM.

For `CC(C)(O)[C@@H](NC(=O)c1nn2cc(-c3cccc(Cl)c3)[nH]c(=O)c2c1C1CC1)c1ccc(F)cc1` [6-677], which IC50 is on record?
The IC50 was 0.45 nM.

How did the IC50 turn out when `CN1CC(NC(=O)c2nn3cc(-c4ccc5ccccc5c4)[nH]c(=O)c3c2C(F)(F)F)(c2ccc(F)cc2)C1` [Example 1-32, N-[3-(4-Fluorophenyl)-1-methylazetidin-3-yl]-6-(naphthalen-2-yl)-4-oxo-3-(trifluoromethyl)-4,5-dihydropyrazolo[1,5-a]pyrazine-2-carboxamide] was run?
Its IC50 is 1.6 nM.

How did the IC50 turn out when `O=C(NCC(O)C(F)(F)F)c1nn2cc(-c3ccc(Cl)c(Cl)c3)[nH]c(=O)c2c1C1CC1` (single isomer, unassigned) [6-417] was run?
Its IC50 is 1.85 nM.

Which IC50 does the source give for `Cc1cc(-c2cn3nc(C(=O)NC(CO)C(F)(F)F)c(C4CC4)c3c(=O)[nH]2)ccc1Cl` (single isomer, unassigned) [6-308] here?
Its IC50 is 2.55 nM.

Which IC50 does the source give for `Cc1cccc2ncc(-c3cn4nc(C(=O)NC5CCc6ccccc65)c(C(C)C)c4c(=O)[nH]3)cc12` (stereo not drawn) [Example 4-72, N-(2,3-Dihydro-1H-inden-1-yl)-3-isopropyl-6-(5-methylquinolin-3-yl)-4-oxo-4,5-dihydropyrazolo[1,5-a]pyrazine-2-carboxamide] here?
Its IC50 is 6.05 nM.

With `Cc1cccc2ncc(-c3cn4nc(C(=O)N[C@H]5CC[C@H](O)CC5)c(C(C)C)c4c(=O)[nH]3)cc12` [Example 4-32, N-(trans-4-Hydroxycyclohexyl)-3-isopropyl-6-(5-methylquinolin-3-yl)-4-oxo-4,5-dihydropyrazolo[1,5-a]pyrazine-2-carboxamide] as the compound, how does the IC50 read?
Its IC50 is 6.5 nM.

For `Cc1ccc(-c2cn3nc(C(=O)NC(C)CN4CCOCC4)c(C4CC4)c3c(=O)[nH]2)cc1C` (racemic) [6-450], which IC50 is on record?
The IC50 was 12 nM.

For `Cc1ccc(-c2cn3nc(C(=O)NCC(O)C(F)(F)F)c(C4CC4)c3c(=O)[nH]2)cc1F` (racemic) [Example 1-159, 3-Cyclopropyl-6-(3-fluoro-4-methylphenyl)-4-oxo-N-(3,3,3-trifluoro-2-hydroxpropyl)-4,5-dihydro-pyrazolo[1,5-a]pyrazine-2-carboxamide (racemate)], which IC50 is on record?
The IC50 was 2 nM.

`COCc1c(C(=O)N[C@@H](c2ccc(F)cc2)C(C)(C)O)nn2cc(-c3ccc(Cl)c(F)c3)[nH]c(=O)c12` [6-625] was tested. Which IC50 did it give?
The IC50 was 9.95 nM.

Which IC50 does the source give for `O=C(NC1CCN(C2CC2)C1)c1nn2cc(-c3ccc4ccccc4c3)[nH]c(=O)c2c1C(F)(F)F` (single isomer, unassigned) [6-500] here?
Its IC50 is 6.75 nM.

For `Cc1nn(C)cc1CNC(=O)c1nn2c(C)c(-c3ccc4ccccc4c3)[nH]c(=O)c2c1C` [Example 3-9, N-[(1,3-Dimethyl-1H-pyrazol-4-yl)methyl]-3,7-dimethyl-6-(naphthalen-2-yl)-4-oxo-4,5-dihydropyrazolo[1,5-a]pyrazine-2-carboxamide], which IC50 is on record?
The IC50 was 1.95 nM.

Which IC50 does the source give for `O=C(NC(c1ccc(F)cc1)C1(O)CC1)c1nn2cc(-c3ccc(Cl)c(F)c3)[nH]c(=O)c2c1C1CC1` (single isomer, unassigned) [6-98] here?
The IC50 was 0.68 nM.

How did the IC50 turn out when `Cc1cccc2ncc(-c3cn4nc(C(=O)N[C@@H](CO)c5ccccc5)c(C(C)C)c4c(=O)[nH]3)cc12` [Example 4-67, N-[(7R)-2-Hydroxy-1-phenylethyl]-6-(5-methylquinolin-3-yl)-4-oxo-3-(propan-2-yl)-4,5-dihydropyrazolo[1,5-a]pyrazine-2-carboxamide] was run?
The IC50 was 1.55 nM.

How did the IC50 turn out when `COc1ccc(C2(NC(=O)c3nn4cc(-c5ccc(C)c(F)c5)[nH]c(=O)c4c3C3CC3)CN(C)C2)cc1` [6-365] was run?
The IC50 was 3.15 nM.

How did the IC50 turn out when `Cc1ccc(-c2cn3nc(C(=O)N[C@@H](c4ccc(F)cc4)C(C)(C)O)cc3c(=O)[nH]2)cc1F` [6-644] was run?
Its IC50 is 6.55 nM.

With `Cc1ccc(-c2cn3nc(C(=O)N[C@@H](c4ccc(F)cc4)C(C)(C)O)c(C4CCC4)c3c(=O)[nH]2)cc1C` [6-577] as the compound, how does the IC50 read?
Its IC50 is 2.7 nM.

Which IC50 does the source give for `Cc1ccc(-c2cn3nc(C(=O)N[C@H](CCO)c4ccc(F)cc4)cc3c(=O)[nH]2)cc1F` [6-638] here?
The IC50 was 1.36 nM.

With `CC(CN1CCOCC1)NC(=O)c1nn2cc(-c3ccc4ccccc4c3)[nH]c(=O)c2c1C(F)(F)F` (racemic) [6-522] as the compound, how does the IC50 read?
The IC50 was 16.9 nM.

For `Cc1cccc2ncc(-c3cn4nc(C(=O)NC(C)c5ccc(Cl)c(Cl)c5)c(C(C)C)c4c(=O)[nH]3)cc12` (stereo not drawn) [Example 4-52, N-[1-(3,4-Dichlorophenyl)ethyl]-3-isopropyl-6-(5-methyl-3-quinolyl)-4-oxo-5H-pyrazolo[1,5-a]pyrazine-2-carboxamide], which IC50 is on record?
Its IC50 is 4.05 nM.

How did the IC50 turn out when `CC(C)(O)[C@@H](NC(=O)c1nn2cc(-c3ccc(Cl)c(Cl)c3)[nH]c(=O)c2c1C1CC1)c1ccc(F)cc1` [Example 1-168, 3-Cyclopropyl-6-(3,4-dichlorophenyl)-N-[(1S)-1-(4-fluorophenyl)-2-hydroxy-2-methylpropyl]-4-oxo-4,5-dihydropyrazolo[1,5-a]pyrazine-2-carboxamide] was run?
The IC50 was 1.9 nM.

How did the IC50 turn out when `Cc1cc(-c2cn3nc(C(=O)N[C@@H](C)C4CC4)c(C(F)(F)C(F)(F)F)c3c(=O)[nH]2)ccc1Cl` [6-478] was run?
Its IC50 is 1.2 nM.

With `CC(NC(=O)c1cc2c(=O)[nH]c(-c3ccc4ccccc4c3)cn2n1)c1ccc(Cl)cc1Cl` (stereo not drawn) [Example 2-47, N-[1-(2,4-Dichlorphenyl)ethyl]-6-(2-naphthyl)-4-oxo-4,5-dihydropyrazolo[1,5-a]pyrazine-2-carboxamide] as the compound, how does the IC50 read?
The IC50 was 3.27 nM.
